Where two headings read alike, the source gives them in different places.
How the values were obtained:
[1] = test system: MCF-10A non-transformed human breast epithelial cells; experiment: Cytotoxicity, SRB binding assay; type: cell-based; details: 48 h
Method: (§1) To further assess the biological efficacies of the Compounds in intact cells, each Compound was evaluated for cytotoxicity using human cancer cell lines. These experiments followed methods that have been extensively used. Cell lines tested included MCF-7 human breast adenocarcinoma cells and MCF-10A non-transformed human breast epithelial cells. The indicated cell lines were treated with varying doses of the test Compound for 48 h. Cell survival was then determined using the SRB binding assay (Skehan et al., 1990, J Natl Cancer Inst 82: 1107), and the concentration of compound that inhibited proliferation by 50% (the IC50) was calculated. Values (in μM) represent the mean±sd for replicate trials.

recombinant human SK = experiment: Inhibition of recombinant human SK, LC/MS/MS assay; type: biochemical; details: 6 μg/ml compound
Method: SK activity is measured by incubation of the recombinant SK with [^3H]sphingosine and 1 mM ATP under defined conditions, followed by extraction of the assay mixture with chloroform:methanol under basic conditions. […] Radioactivity in aliquots of the aqueous phase is then quantified as a measure of [^3H]S1P formation.
In an alternate assay procedure, the recombinant human SK was incubated with unlabeled sphingosine and ATP as described above. After 30 minutes, the reactions were terminated by the addition of acetonitrile to directly extract the newly synthesized S1P. The amount of S1P in the samples is then quantified as follows. C17 base D-erythro-sphingosine and C17 SIP are used as internal standards for sphingosine and S1P, respectively. […] The lipids are then fractionation by High-Performance Liquid Chromatography using a C8-reverse phase column eluted with 1 mM methanolic ammonium formate/2 mM aqueous ammonium formate. […] Calibration curves are generated by plotting the peak area ratios of the synthetic standards for each sphingolipid, and used to determine the normalized amounts of sphingosine and S1P in the samples.
Each Compound of this invention was tested for its ability to inhibit recombinant SK using the LC/MS/MS assay described above.

[2] = test system: MCF-7 human breast adenocarcinoma cells; experiment: Cytotoxicity, SRB binding assay; type: cell-based
Method: as §1

[3] = inhibition of cell proliferation, read-out: MCF-10A IC50
[4] = MCF7, inhibition of cell proliferation, 48 h, read-out: MCF-7 IC50

O=C(Nc1ccc(O)cc1)C12CC3CC(CC(C3)C1)C2 [Compound 5, Adamantane-1-carboxylic acid (4-hydroxy-phenyl)-amide]
IC50 [1, 3]: 30 µM | Recombinant SK (% inhibition) (recombinant human SK): 100%

N#CCc1ccc(NC(=O)C23CC4CC(CC(C4)C2)C3)cc1 [Compound 10, Adamantane-1-carboxylic acid (4-cyanomethyl-phenyl)-amide]
IC50 [1, 3]: 170 µM | Recombinant SK (% inhibition) (recombinant human SK): 3%

O=C(NCCc1cccc(Oc2ccccc2)c1)C12CC3CC(C1)CC(c1ccc(Cl)cc1)(C3)C2 [Compound 46, 3-(4-Chloro-phenyl)-adamantane-1-carboxylic acid [2-(3-phenoxy-phenyl)-ethyl]-amide]
IC50 [2, 4]: 91 µM | Recombinant SK (% inhibition) (recombinant human SK): 4%

O=C(NCCc1ccc(Oc2ccccc2)cc1)C12CC3CC(C1)CC(c1ccc(Cl)cc1)(C3)C2 [Compound 47, 3-(4-Chloro-phenyl)-adamantane-1-carboxylic acid [2-(4-phenoxy-phenyl)-ethyl]-amide]
IC50 [2, 4]: 16 µM | Recombinant SK (% inhibition) (recombinant human SK): 26%

O=C(NCc1ccc(-c2ccccc2)cc1)C12CC3CC(C1)CC(c1ccc(Cl)cc1)(C3)C2 [Compound 49, 3-(4-Chloro-phenyl)-adamantane-1-carboxylic acid (biphenyl-4-ylmethyl)-amide]
IC50 [2, 4]: 68 µM | Recombinant SK (% inhibition) (recombinant human SK): 33%

CN1CCC(NC(=O)C23CC4CC(CC(C4)C2)C3)CC1 [Compound 50, Adamantane-1-carboxylic acid (1-methyl-piperidin-4-yl)-amide]
IC50 [2, 4]: 181 µM | Recombinant SK (% inhibition) (recombinant human SK): 0%

CC(C)(C)NCCCNC(=O)C12CC3CC(C1)CC(c1ccc(Cl)cc1)(C3)C2 [Compound 53, 3-(4-Chloro-phenyl)-adamantane-1-carboxylic acid (3-tert-butylamino-propyl)-amide]
IC50 [2, 4]: 11 µM | Recombinant SK (% inhibition) (recombinant human SK): 52%

O=C(NCCCN1CCCC1)C12CC3CC(C1)CC(c1ccc(Cl)cc1)(C3)C2 [Compound 54, 3-(4-Chloro-phenyl)-adamantane-1-carboxylic acid (3-pyrrolidin-1-yl-propyl)-amide]
IC50 [2, 4]: 11 µM | Recombinant SK (% inhibition) (recombinant human SK): 95%

CN1CCCC1CCNC(=O)C12CC3CC(CC(C3)C1)C2 (stereo not drawn) [Compound 56, Adamantane-1-carboxylic acid [2-(1-methyl-pyrrolidin-2-yl)-ethyl]-amide]
IC50 [2, 4]: 10 µM | Recombinant SK (% inhibition) (recombinant human SK): 33%

O=C(NCc1ccncc1)C12CC3CC(CC(C3)C1)C2 [Compound 60, Adamantane-1-carboxylic acid (pyridin-4-ylmethyl)-amide]
IC50 [2, 4]: 7 µM | Recombinant SK (% inhibition) (recombinant human SK): 0%

O=C(Nc1ncnc2[nH]cnc12)C12CC3CC(C1)CC(c1ccc(Cl)cc1)(C3)C2 [Compound 73, 3-(4-Chloro-phenyl)-adamantane-1-carboxylic acid (9H-purin-6-yl)-amide]
IC50 [2, 4]: 80 µM | Recombinant SK (% inhibition) (recombinant human SK): 53%

Fc1cc(C(F)(F)F)ccc1CNCC12CC3CC(C1)CC(c1ccc(Cl)cc1)(C3)C2 [Compound 78, [3-(4-Chloro-phenyl)-adamantan-1-ylmethyl]-(2-fluoro-4-trifluoromethyl-benzyl)-amine]
IC50 [2, 4]: 30 µM | Recombinant SK (% inhibition) (recombinant human SK): 43%

CN1CCN(NCC23CC4CC(C2)CC(c2ccc(Cl)cc2)(C4)C3)CC1 [Compound 83, [3-(4-Chloro-phenyl)-adamantan-1-ylmethyl]-(4-methyl-piperazin-1-yl)-amine]
IC50 [2, 4]: 5 µM | Recombinant SK (% inhibition) (recombinant human SK): 60%

CN1CCCC1CCNCC12CC3CC(C1)CC(c1ccc(Cl)cc1)(C3)C2 (stereo not drawn) [Compound 86, [3-(4-Chloro-phenyl)-adamantan-1-ylmethyl]-[2-(1-methyl-pyrrolidin-2-yl)-ethyl]-amine]
IC50 [2, 4]: 5 µM | Recombinant SK (% inhibition) (recombinant human SK): 6%

Clc1ccc(C23CC4CC(CC(CNCc5ccncc5)(C4)C2)C3)cc1 [Compound 88, [3-(4-Chloro-phenyl)-adamantan-1-ylmethyl]-pyridin-4-ylmethyl-amine]
IC50 [2, 4]: 11 µM | Recombinant SK (% inhibition) (recombinant human SK): 1%

CC(N)C12CC3CC(CC(c4ccc(Cl)cc4)(C3)C1)C2 (stereo not drawn) [Compound 91, 1-[3-(4-Chloro-phenyl)-adamantan-1-yl]-ethylamine]
IC50 [1, 3]: 4 µM | IC50 [2, 4]: 5 µM

CC(C)NC(C)C12CC3CC(CC(c4ccc(Cl)cc4)(C3)C1)C2 (stereo not drawn) [Compound 92, {1-[3-(4-Chloro-phenyl)-adamantan-1-yl]-ethyl}-isopropyl-amine]
IC50 [1, 3]: 6 µM | IC50 [2, 4]: 2 µM

CC(Nc1ccccc1)C12CC3CC(CC(c4ccccc4)(C3)C1)C2 (stereo not drawn) [Compound 93, Phenyl-[1-(3-phenyl-adamantan-1-yl)-ethyl]-amine]
IC50 [2, 4]: 15 µM | Recombinant SK (% inhibition) (recombinant human SK): 70%

CC(Nc1ccccc1)C12CC3CC(CC(c4ccc(Cl)cc4)(C3)C1)C2 (stereo not drawn) [Compound 95, {1-[3-(4-Chloro-phenyl)-adamantan-1-yl]-ethyl}-phenyl-amine]
IC50 [1, 3]: 68 µM | IC50 [2, 4]: 22 µM

CC(NCc1ccccc1)C12CC3CC(CC(C3)C1)C2 (stereo not drawn) [Compound 96, (1-Adamantan-1-yl-ethyl)-benzyl-amine]
IC50 [1, 3]: 9 µM | IC50 [2, 4]: 9 µM

CC(NC1CCN(C)CC1)C12CC3CC(CC(C3)C1)C2 (stereo not drawn) [Compound 104, (1-Adamantan-1-yl-ethyl)-(1-methyl-piperidin-4-yl)-amine]
IC50 [2, 4]: 34 µM | Recombinant SK (% inhibition) (recombinant human SK): 0%

CC(NC1CCN(C)CC1)C12CC3CC(CC(c4ccccc4)(C3)C1)C2 (stereo not drawn) [Compound 105, (1-Methyl-piperidin-4-yl)-[1-(3-phenyl-adamantan-1-yl)-ethyl]-amine]
IC50 [1, 3]: 14 µM | IC50 [2, 4]: 5 µM

CC(NC1CCN(C)CC1)C12CC3CC(CC(c4ccc(F)cc4)(C3)C1)C2 (stereo not drawn) [Compound 106, {1-[3-(4-Fluoro-phenyl)-adamantan-1-yl]-ethyl}-(1-methyl-piperidin-4-yl)-amine]
IC50 [1, 3]: 6 µM | IC50 [2, 4]: 2 µM

O=C(O)C12CC3CC(C1)CC(c1ccccc1)(C3)C2 [Compound 121, 3-Phenyl-adamantane-1-carboxylic acid]
IC50 [1, 3]: 176 µM | IC50 [2, 4]: 13 µM

O=C(O)C12CC3CC(C1)CC(c1ccc(F)cc1)(C3)C2 [Compound 122, 3-(4-Fluoro-phenyl)-adamantane-1-carboxylic acid]
IC50 [1, 3]: 182 µM | IC50 [2, 4]: 155 µM

O=C(O)C12CC3CC(C1)CC(c1ccc(Cl)cc1)(C3)C2 [Compound 123, 3-(4-Chloro-phenyl)-adamantane-1-carboxylic acid]
IC50 [1, 3]: 95 µM | IC50 [2, 4]: 48 µM

CC(=O)C12CC3CC(CC(C3)C1)C2 [Compound 124, 1-Adamantan-1-yl-ethanone]
IC50 ([1]; read-out: MCF-10A IC50 (μM)): 105 µM | IC50 ([2]; MCF7, 48 h, read-out: MCF-7 IC50 (μM)): 11 µM

CC(=O)C12CC3CC(C1)CC(c1ccccc1)(C3)C2 [Compound 125, 1-(3-Phenyl-adamantan-1-yl)-ethanone]
IC50 [1, 3]: 59 µM | IC50 [2, 4]: 8 µM

CC(=O)C12CC3CC(C1)CC(c1ccc(F)cc1)(C3)C2 [Compound 126, 1-[3-(4-Fluoro-phenyl)-adamantan-1-yl]-ethanone]
IC50 [1, 3]: 6 µM | IC50 [2, 4]: 2 µM

CC(=O)C12CC3CC(C1)CC(c1ccc(Cl)cc1)(C3)C2 [Compound 127, 1-[3-(4-Chloro-phenyl)-adamantan-1-yl]-ethanone]
IC50 [1, 3]: 16 µM | IC50 [2, 4]: 6 µM

COC(=O)C(C(=O)OC)C(=O)C12CC3CC(CC(C3)C1)C2 [Compound 128, 2-(Adamantane-1-carbonyl)-malonic acid dimethyl ester]
IC50 [1, 3]: 63 µM | IC50 [2, 4]: 34 µM

COC(=O)C(C(=O)OC)C(=O)C12CC3CC(C1)CC(c1ccc(Cl)cc1)(C3)C2 [Compound 129, 2-[3-(4-Chloro-phenyl)-adamantane-1-carbonyl]-malonic acid dimethyl ester]
IC50 [1, 3]: 105 µM | IC50 [2, 4]: 16 µM

O=C(/C=C/c1ccc(Cl)cc1)C12CC3CC(C1)CC(c1ccc(Cl)cc1)(C3)C2 [Compound 130, 3-(4-Chloro-phenyl)-1-[3-(4-chloro-phenyl)-adamantan-1-yl]-propenone]
IC50 [2, 4]: 7 µM | Recombinant SK (% inhibition) (recombinant human SK): 38%

N#Cc1ccc(/C=C/C(=O)C23CC4CC(C2)CC(c2ccc(Cl)cc2)(C4)C3)cc1 [Compound 131, 4-{3-[3-(4-Chloro-phenyl)-adamantan-1-yl]-3-oxo-propenyl}-benzonitrile]
IC50 [2, 4]: 27 µM | Recombinant SK (% inhibition) (recombinant human SK): 41%

O=C(/C=C/c1ccc(Cl)nc1)C12CC3CC(C1)CC(c1ccc(Cl)cc1)(C3)C2 [Compound 134, 1-[3-(4-Chloro-phenyl)-adamantan-1-yl]-3-(6-chloro-pyridin-3-yl)-propenone]
IC50 [2, 4]: 16 µM | Recombinant SK (% inhibition) (recombinant human SK): 52%

O=C(/C=C/c1cnc[nH]1)C12CC3CC(C1)CC(c1ccc(Cl)cc1)(C3)C2 [Compound 135, 1-[3-(4-Chloro-phenyl)-adamantan-1-yl]-3-(1H-imidazol-4-yl)-propenone]
IC50 [2, 4]: 3 µM | Recombinant SK (% inhibition) (recombinant human SK): 64%

— patent US8557800B2, “Sphingosine kinase inhibitors” (Apogee Biotechnology Corporation, priority 2005, dated 2013)
